In US20220298174A1, “TETRACYCLIC COMPOUND, PREPARATION METHOD THEREFOR AND USE THEREOF” (SHANGHAI JEMINCARE PHARMACEUTICALS CO., LTD, priority 2019, published 2022):
Read-outs that look alike come from different tables or passages of the source.

Key:
Type in all cases: cell-based
[1] = test system: pERK (Thr202/Tyr204) in NCI-H358 cells expressing mutant RAS (G12C); experiment: Inhibition of RAS-mediated signal transduction: p-ERK ELISA normalized to Janus green
Protocol: NCI-H358 cells (ATCC accession No. CRL-5807) expressing mutant RAS (G12C) were cultured in an RPMI medium containing 10% fetal bovine serum, penicillin/streptomycin double antibody. The cells were plated on to a 96-well plate (Corning Cat. No. 3699) at 40,000 cells per well and left standing overnight to adhere to the bottom of the plate. The cells were treated with or without the compounds of the present disclosure (dimethylsulfoxide, DMSO), with a final DMSO concentration of 0.5% ensured. After 2 hours of treatment, the medium was removed, and 4% paraformaldehyde (Beyotime Cat. No. E672002-0100) was added. The resulting mixture was left standing for 20 min. After being immobilized, the cells were washed with PBS and incubated with pre-cooled methanol for 10 min to permeabilize the cell membrane. Non-specific antibody binding was blocked by incubation for 1 h with 1× blocking buffer (Thermo Cat. No. 37520).
The ERK phosphorylation level was detected by enzyme-linked immunosorbent assay (ELISA). A phospho-ERK antibody (Cell Signal Technology Cat. No. 4370) was 1:400 diluted with 1× blocking solution containing 0.05% tween 20 and added to the 96-well plate for overnight incubation at 4° C. The plate was washed 5 times with PBS containing 0.05% tween 20. An HRP-conjugated secondary antibody (Thermo Cat. No. 31460) was 1:10,000 diluted with 1× blocking buffer containing 0.05% tween 20 and added to the 96-well plate for incubation for 2 h at room temperature. The plate was washed 5 times with PBS containing 0.05% Tween and incubated with TMB (Thermo Cat. No. 4816) at room temperature for 15 min. The reaction was terminated with 1 mol/L H2SO4, and the OD values were read at a wavelength of 450 nm using an EnVision (PerkinElmer).
The total number of cells per well was measured using the Janus green staining method. The 96-well plate after the detection of the ERK phosphorylation level was washed to colorlessness with PBS and incubated with 0.1% Janus green (Abcam Cat. No. ab111622) for 10 min. After washing with double distilled water, the plate was incubated with 0.1 mol/L HCl with shaking for 10 min. The OD values were read at a wavelength of 595 nm using an EnVision (PerkinElmer).
The signal values of pERK (Thr202/Tyr204) were normalized using the signal values of Janus green, and the inhibition percentages relative to the DMSO reference were calculated after treatment with the drugs. The percentage values were subjected to four-parameter dose response curve fitting to generate IC50 values.

[2] = test system: MIA PaCa2 cells expressing KRAS-G12C; experiment: Cell proliferation assay (Cell Titer Glo), MIA PaCa2; conditions: Homo sapiens, MIA PaCa-2, 72 h, ATP content (Cell Titer Glo)
Protocol: (§1) The ability of the compounds of the present disclosure to inhibit the growth of KRAS-G12C-expressing cells was assessed by measuring cell viability and calculating GI50 values.
(§2) Tumor cell line NCI-H358 (ATCC accession No. CRL-5807) expressing KRAS-G12C was cultured in an RPMI medium supplemented with 10% fetal bovine serum and penicillin/streptomycin double antibody; tumor cell line MIA PaCa2 (ATCC CRL-1420) expressing KRAS-G12C was cultured in a DMEM medium supplemented with 10% fetal bovine serum, 2.5% horse serum and penicillin/streptomycin double antibody.
(§3) NCI-H358 and MIA-Paca2 cells were seeded on a black clear-bottom 384-well plate (PerkinElmer Cat. No. 6007460) at densities of 1000 and 800 cells, respectively, and allowed to adhere to the walls overnight (8-12 h). After the cells adhered to the walls, the diluted compounds of the present disclosure with a concentration that was 5 times that of the working solution (containing 0.1% dimethyl sulfoxide, namely DMSO, at the final concentration) was added to the experimental groups; the same dilution (containing 0.1% DMSO at the final concentration) as in the experimental groups was added to the control group. After 72 h, the amount of cell proliferation was measured by measuring ATP content using a Cell Titer Glo reagent (Promega Cat. No. G7572) according to the method described in the manuals. Steps are briefly as follows: the cell plate was taken out and equilibrated at normal temperature for 30 min; the Cell Titer Glo reagent with an equal volume to that of the culture was added; the culture plate was placed on a shaker for lysis for 2 min; the culture plate was left standing at normal temperature for 10 min; the optical signal values were read using a microplate reader EnVision (PerkinElmer).
(§4) The inhibition percentages were calculated from the data of the experimental groups relative to the DMSO group, and GI50 was calculated using the data processing software GraphPad by analyzing the inhibitory rates yielded by 9 dosing concentrations produced by 1:3 dilution of the compounds, with the results shown in Table 2.

[3] = test system: NCI-H358 cells expressing KRAS-G12C; experiment: Cell proliferation assay (Cell Titer Glo), NCI-H358; conditions: Homo sapiens, 72 h, ATP content (Cell Titer Glo)
Protocol: as §1, §2, §3, §4

[4] = Homo sapiens, NCI-H358, 2 h, NCI-H358 cells, 2 hours of treatment, ELISA, read-out: p-ERK IC50 (NCI H358)
[5] = NCI-H358 cells, 2 hours of treatment, ELISA, read-out: p-ERK IC50 (NCI H358)

Row | Structure (SMILES) | IC50 [1, 4] | GI50 [2] | GI50 [3] | IC50 [1, 5] | IC50 ([1]; Homo sapiens, NCI-H358, 2 h, read-out: p-ERK IC50 (NCI H358, μM))
1 | C=CC(=O)N1CCN2c3nc(=O)n(-c4c(C)ccnc4C(C)C)c4c(F)c(-c5c(O)cccc5F)nc(c34)OC[C@@H]2C1 [Compound 3] | 0.647 µM |  |  |  | 
2 | C=CC(=O)N1CCN2c3nc(=O)n(-c4c(C)ccnc4C(C)C)c4c(F)c(-c5c(O)cccc5F)c(F)c(c34)OC[C@H]2C1 (atropisomer, axis not shown) [Compound 15A] | 6.36 µM | 4520 nM | 3430 nM |  | 
3 | C=CC(=O)N1CCN2c3nc(=O)n(-c4c(C)ccnc4C(C)C)c4cc(-c5c(O)cccc5F)c(F)c(c34)OC[C@@H]2C1 [Compound 1A] |  |  |  | 0.61 µM | 
4 | C=C(F)C(=O)N1CCN2c3nc(=O)n(-c4c(C)ccnc4C(C)C)c4cc(-c5c(O)cccc5F)c(F)c(c34)OC[C@H]2C1 [Compound 5A] | 0.637 µM |  |  |  | 
5 | C=CC(=O)N1CCN(c2nc(=O)n(-c3c(C)ccnc3C(C)C)c3c(F)c(-c4c(O)cccc4F)ncc23)[C@@H](C)C1 [Compound 13] | 0.159 µM | 1270 nM | 320 nM |  | 
6 | C=CC(=O)N1C[C@@H]2COc3c(F)c(-c4c(O)cccc4F)nc4c3c(nc(=O)n4-c3c(C)ccnc3C(C)C)N2[C@@H](C)C1 (single isomer, unassigned) [Compound 8A] | 0.26 µM | 304 nM | 350 nM |  | 
7 | C=CC(=O)N1CCN2c3nc(=O)n(-c4c(C)ccnc4C(C)C)c4cc(-c5c(O)cccc5F)c(F)c(c34)OC[C@H]2C1 [Compound 2A] | 0.053 µM | 48 nM | 29 nM |  | 
8 | C=CC(=O)N1CCN2c3nc(=O)n(-c4c(C)ccnc4C(C)C)c4c(F)c(-c5c(O)cccc5F)nc(c34)OC[C@H]2C1 (atropisomer, axis not shown) [Compound 10A] | 0.065 µM | 333 nM | 111 nM |  | 
9 | C=CC(=O)N1CCN2c3nc(=O)n(-c4c(C)ccnc4C(C)C)c4cc(-c5c(F)ccc6cc[nH]c(=O)c56)c(F)c(c34)OC[C@H]2C1 [Compound 14A] | > 10 µM |  |  |  | 
10 | C=CC(=O)N1CCN2c3nc(=O)n(-c4c(C)ccnc4C(C)C)c4nc(-c5c(O)cccc5F)c(F)c(c34)OC[C@H]2C1 (atropisomer, axis not shown) [Compound 7A] | 0.196 µM | 629 nM | 133 nM |  | 
11 | C=CC(=O)N1CCN2c3nc(=O)n(-c4c(C)ccnc4C(C)C)c4cc(-c5c(O)cccc5F)c(F)c(c34)OC[C@H]2C1 [Compound 2] |  |  |  | 0.1 µM | 
12 | C=CC(=O)N1CCN2c3nc(=O)n(-c4c(C)ccnc4C(C)C)c4cc(-c5c(N)c(Cl)cc(Cl)c5F)c(F)c(c34)OC[C@H]2C1 (atropisomer, axis not shown) [Compound 11A] | 0.052 µM | 685 nM | 70 nM |  | 
13 | C=CC(=O)N1CCN(c2ncnc3c(F)c(-c4c(O)cccc4F)c(Cl)cc23)CC1 [ARS-1620] |  | 1210 nM | 510 nM |  | 0.325 µM
14 | C=CC(=O)N1CCN2c3nc(=O)n(-c4c(C)ccnc4C(C)C)c4cc(-c5c(N)cccc5F)c(F)c(c34)OC[C@H]2C1 [Compound 12A] | 0.032 µM | 54 nM | 10 nM |  | 
15 | C=CC(=O)N1CCN2c3nc(=O)n(-c4c(C)ccnc4C(C)C)c4cc(-c5c(O)ccc(F)c5F)c(F)c(c34)OC[C@H]2C1 (atropisomer, axis not shown) [Compound 4A] | 0.038 µM | 324 nM | 34 nM |  | 
16 | C=CC(=O)N1CCN2c3nc(=O)n(-c4c(C)ccnc4C(C)C)c4cc(-c5c(O)cccc5F)c(F)c(c34)OC[C@@H]2C1 [Compound 1] |  |  |  | 0.288 µM | 
17 | C=CC(=O)N1CCN2c3nc(=O)n(-c4c(C)ccnc4C(C)C)c4cc(-c5c(C)ccc6[nH]ncc56)c(F)c(c34)OC[C@H]2C1 (atropisomer, axis not shown) [Compound 6A] | 1.77 µM |  |  |  | 
